# Data from patent US12161722B2, “Bifunctional heterocyclic compound having BTK degradation function via ubiquitin proteasome pathway, and use thereof” (KOREA RESEARCH INSTITUTE OF CHEMICAL TECHNOLOGY, priority 2021, dated 2024).
# Target: T1, WT BTK protein (Homo sapiens, UniProt Q06187)
# T1 construct: measured for intracellular BTK protein levels by Western blotting; endogenous in cells; host or cells: TMD-8 or RAMOS cells
# Experiment: BTK protein degradation assay (Western blotting), WT BTK
# Assay type: cell-based
# Details: concentration range accounting for 50% degradation of WT BTK protein, TMD-8 or RAMOS cells, 24 hours
# How it was run: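 TMD-8 cells (1×10^6 cells/mL) treated 24 h with compound serial dilutions, then lysed in RIPA. Equal protein loads analysed by Western blot for BTK with GAPDH/β-actin as loading controls; activity binned by concentration giving 50% WT BTK degradation.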
# T1 sequence (Q06187 whole entry): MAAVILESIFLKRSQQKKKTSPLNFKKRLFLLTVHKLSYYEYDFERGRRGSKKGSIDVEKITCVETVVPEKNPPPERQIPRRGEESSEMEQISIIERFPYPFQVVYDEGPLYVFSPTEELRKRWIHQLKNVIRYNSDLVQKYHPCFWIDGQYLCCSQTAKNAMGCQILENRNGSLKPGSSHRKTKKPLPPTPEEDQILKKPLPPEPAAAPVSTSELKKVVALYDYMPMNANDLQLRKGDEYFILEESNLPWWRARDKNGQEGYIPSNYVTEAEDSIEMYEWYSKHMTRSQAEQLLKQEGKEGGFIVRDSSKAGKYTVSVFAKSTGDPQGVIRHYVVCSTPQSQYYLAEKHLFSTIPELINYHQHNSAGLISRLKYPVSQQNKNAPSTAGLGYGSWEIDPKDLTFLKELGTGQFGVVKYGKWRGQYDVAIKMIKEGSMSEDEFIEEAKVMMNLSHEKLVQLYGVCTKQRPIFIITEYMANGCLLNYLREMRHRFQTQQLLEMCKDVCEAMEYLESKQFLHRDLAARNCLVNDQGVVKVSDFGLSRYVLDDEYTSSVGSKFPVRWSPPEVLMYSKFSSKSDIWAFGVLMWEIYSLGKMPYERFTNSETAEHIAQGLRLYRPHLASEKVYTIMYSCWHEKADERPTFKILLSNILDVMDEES
row,SMILES,DC50 [nM]
1,"Cc1cccc(C)c1Nc1nn(C)c2nc(Nc3ccc4c(c3)CN(C[C@@H]3[C@H]5CN(c6ccc7c(c6)C(=O)N(C6CCC(=O)NC6=O)C7=O)C[C@@H]35)CC4)ncc12 (stereo partly drawn) [Compound 148, 5-((1R,5S,6S)-6-((7-((3-((2,6-Dimethylphenyl)amino)-1-methyl-1H-pyrazolo[3,4-d]pyrimidin-6-yl)amino)-3,4-dihydroisoquinolin-2 (1H)-yl)methyl)-3-azabicyclo[3.1.0]hexan-3-yl)-2-(2,6-dioxopiperidin-3-yl)isoindoline-1,3-dione]",0.1 to 10
2,"Cc1cccc(C)c1Nc1nn(C)c2nc(Nc3ccc4c(c3)CN(C3CN(CC5CN(c6ccc7c(c6)C(=O)N(C6CCC(=O)NC6=O)C7=O)C5)C3)CC4)ncc12 (stereo not shown) [Compound 152, 5-(3-((3-(7-((3-((2,6-Dimethylphenyl)amino)-1-methyl-TH-pyrazolo[3,4-d]pyrimidin-6-yl)amino)-3,4-dihydroisoquinolin-2 (1H)-yl)azetidin-1-yl)methyl)azetidin-1-yl)-2-(2,6-dioxopiperidin-3-yl)isoindoline-1,3-dione]",0.1 to 10
3,"Cc1cccc(C)c1Nc1nn(C)c2nc(Nc3ccc4c(c3)CN(C3CN(C[C@@H]5[C@H]6CN(c7ccc8c(c7)C(=O)N(C7CCC(=O)NC7=O)C8=O)C[C@@H]56)C3)CC4)ncc12 (stereo partly drawn) [Compound 153, 5-((1R,5S,6S)-6-((3-(7-((3-((2,6-Dimethylphenyl)amino)-1-methyl-1H-pyrazolo[3,4-d]pyrimidin-6-yl)amino)-3,4-dihydroisoquinolin-2 (1H)-yl)azetidin-1-yl)methyl)-3-azabicyclo[3.1.0]hexan-3-yl)-2-(2,6-dioxopiperidin-3-yl)isoindoline-1,3-dione]",0.1 to 10
4,"Cc1cccc(C)c1Nc1nn(C)c2nc(Nc3ccc(N4CCN(C[C@H]5CCN(c6ccc7c(c6)C(=O)N(C6CCC(=O)NC6=O)C7=O)C5)CC4)nc3)ncc12 (stereo partly drawn) [Compound 154, 5-((R)-3-((4-(5-((3-((2,6-Dimethylphenyl)amino)-1-methyl-1H-pyrazolo[3,4-d]pyrimidin-6-yl)amino)pyridin-2-yl)piperazin-1-yl)methyl)pyrrolidin-1-yl)-2-(2,6-dioxopiperidin-3-yl)isoindoline-1,3-dione]",0.1 to 10
5,"Cc1cccc(C)c1Nc1nn(C)c2nc(Nc3ccc(N4CCN(CCC5CCN(c6ccc7c(c6)C(=O)N(C6CCC(=O)NC6=O)C7=O)CC5)CC4)nc3)ncc12 (stereo not shown) [Compound 157, 5-(4-(2-(4-(5-((3-((2,6-dimethylphenyl)amino)-1-methyl-1H-pyrazolo[3,4-d]pyrimidin-6-yl)amino)pyridin-2-yl)piperazin-1-yl)ethyl)piperidin-1-yl)-2-(2,6-dioxopiperidin-3-yl)isoindoline-1,3-dione]",0.1 to 10
6,"Cc1cccc(C)c1Nc1nn(C)c2nc(Nc3ccc(N4CCN(C5CN(c6ccc7c(c6)C(=O)N(C6CCC(=O)NC6=O)C7=O)C5)CC4)nc3)ncc12 (stereo not shown) [Compound 158, 5-(3-(4-(5-((3-((2,6-Dimethylphenyl)amino)-1-methyl-1H-pyrazolo[3,4-d]pyrimidin-6-yl)amino)pyridin-2-yl)piperazin-1-yl)azetidin-1-yl)-2-(2,6-dioxopiperidin-3-yl)isoindoline-1,3-dione]",0.1 to 10
7,"Cc1cccc(C)c1Nc1nn(C)c2nc(Nc3ccc(N4CCN(C[C@H]5CCCN(c6ccc7c(c6)C(=O)N(C6CCC(=O)NC6=O)C7=O)C5)CC4)nc3)ncc12 (stereo partly drawn) [Compound 160, 5-((R)-3-((4-(5-((3-((2,6-Dimethylphenyl)amino)-1-methyl-1H-pyrazolo[3,4-d]pyrimidin-6-yl)amino)pyridin-2-yl)piperazin-1-yl)methyl)piperidin-1-yl)-2-(2,6-dioxopiperidin-3-yl)isoindoline-1,3-dione]",0.1 to 10
8,"Cc1cccc(C)c1Nc1nn(C)c2nc(Nc3ccc(N4CCN(C[C@@H]5CCCN(c6ccc7c(c6)C(=O)N(C6CCC(=O)NC6=O)C7=O)C5)CC4)nc3)ncc12 (stereo partly drawn) [Compound 161, 5-((S)-3-((4-(5-((3-((2,6-Dimethylphenyl)amino)-1-methyl-1H-pyrazolo[3,4-d]pyrimidin-6-yl)amino)pyridin-2-yl)piperazin-1-yl)methyl)piperidin-1-yl)-2-(2,6-dioxopiperidin-3-yl)isoindoline-1,3-dione]",0.1 to 10
9,"Cc1cccc(C)c1Nc1nn(C)c2nc(Nc3ccc(N4CCN(CC5CCN(c6ccc7c(c6)C(=O)N(C6CCC(=O)NC6=O)C7=O)CC5)CC4)cn3)ncc12 (stereo not shown) [Compound 162, 5-(4-((4-(6-((3-((2,6-Dimethylphenyl)amino)-1-methyl-1H-pyrazolo[3,4-d]pyrimidin-6-yl)amino)pyridin-3-yl)piperazin-1-yl)methyl)piperidin-1-yl)-2-(2,6-dioxopiperidin-3-yl)isoindoline-1,3-dione]",10 to 1000
10,"Cc1cccc(C)c1Nc1nn(C)c2nc(Nc3ccc(C4CCN(CC5CCN(c6ccc7c(c6)C(=O)N(C6CCC(=O)NC6=O)C7=O)CC5)CC4)nc3)ncc12 (stereo not shown) [Compound 164, 5-(4-((4-(5-((3-((2,6-Dimethylphenyl)amino)-1-methyl-1H-pyrazolo[3,4-d]pyrimidin-6-yl)amino)pyridin-2-yl)piperidin-1-yl)methyl)piperidin-1-yl)-2-(2,6-dioxopiperidin-3-yl)isoindoline-1,3-dione]",0.1 to 10

# Continued, values first:
row,DC50 [nM],SMILES
1,0.1 to 10,"Cc1cccc(C)c1Nc1nn(C)c2nc(Nc3ccc4c(c3)CN(C[C@@H]3CCN(c5ccc6c(c5)C(=O)N(C5CCC(=O)NC5=O)C6=O)C3)CC4)ncc12 (stereo partly drawn) [Compound 145, 5-((S)-3-((7-((3-((2,6-Dimethylphenyl)amino)-1-methyl-1H-pyrazolo[3,4-d]pyrimidin-6-yl)amino)-3,4-dihydroisoquinolin-2 (1H)-yl)methyl)pyrrolidin-1-yl)-2-(2,6-dioxopiperidin-3-yl)isoindoline-1,3-dione]"
2,0.1 to 10,"Cc1cccc(C)c1Nc1nn(C)c2nc(Nc3ccc4c(c3)CN(CCC3CCN(c5ccc6c(c5)C(=O)N(C5CCC(=O)NC5=O)C6=O)CC3)CC4)ncc12 (stereo not shown) [Compound 146, 5-(4-(2-(7-((3-((2,6-Dimethylphenyl)amino)-1-methyl-1H-pyrazolo[3,4-d]pyrimidin-6-yl)amino)-3,4-dihydroisoquinolin-2 (1H)-yl)ethyl)piperidin-1-yl)-2-(2,6-dioxopiperidin-3-yl)isoindoline-1,3-dione]"
3,0.1 to 10,"Cc1cccc(C)c1Nc1nn(C)c2nc(Nc3ccc4c(c3)CN(CC3CCN(C5CN(c6ccc7c(c6)C(=O)N(C6CCC(=O)NC6=O)C7=O)C5)CC3)CC4)ncc12 (stereo not shown) [Compound 147, 5-(3-(4-((7-((3-((2,6-Dimethylphenyl)amino)-1-methyl-1H-pyrazolo[3,4-d]pyrimidin-6-yl)amino)-3,4-dihydroisoquinolin-2 (1H)-yl)methyl)piperidin-1-yl)azetidin-1-yl)-2-(2,6-dioxopiperidin-3-yl)isoindoline-1,3-dione]"
4,0.1 to 10,"Cc1cccc(C)c1Nc1nn(C)c2nc(Nc3ccc4c(c3)CN(C3CN(C[C@H]5CCN(c6ccc7c(c6)C(=O)N(C6CCC(=O)NC6=O)C7=O)C5)C3)CC4)ncc12 (stereo partly drawn) [Compound 150, 5-((R)-3-((3-(7-((3-((2,6-Dimethylphenyl)amino)-1-methyl-1H-pyrazolo[3,4-d]pyrimidin-6-yl)amino)-3,4-dihydroisoquinolin-2 (1H)-yl)azetidin-1-yl)methyl)pyrrolidin-1-yl)-2-(2,6-dioxopiperidin-3-yl)isoindoline-1,3-dione]"
5,0.1 to 10,"Cc1cccc(C)c1Nc1nn(C)c2nc(Nc3ccc4c(c3)CN(C3CN(C[C@@H]5CCN(c6ccc7c(c6)C(=O)N(C6CCC(=O)NC6=O)C7=O)C5)C3)CC4)ncc12 (stereo partly drawn) [Compound 151, 5-((S)-3-((3-(7-((3-((2,6-Dimethylphenyl)amino)-1-methyl-1H-pyrazolo[3,4-d]pyrimidin-6-yl)amino)-3,4-dihydroisoquinolin-2 (1H)-yl)azetidin-1-yl)methyl)pyrrolidin-1-yl)-2-(2,6-dioxopiperidin-3-yl)isoindoline-1,3-dione]"
6,0.1 to 10,"Cc1cccc(C)c1Nc1nn(C)c2nc(Nc3ccc(N4CCN(C[C@@H]5CCN(c6ccc7c(c6)C(=O)N(C6CCC(=O)NC6=O)C7=O)C5)CC4)nc3)ncc12 (stereo partly drawn) [Compound 155, 5-((S)-3-((4-(5-((3-((2,6-dimethylphenyl)amino)-1-methyl-1H-pyrazolo[3,4-d]pyrimidin-6-yl)amino)pyridin-2-yl)piperazin-1-yl)methyl)pyrrolidin-1-yl)-2-(2,6-dioxopiperidin-3-yl)isoindoline-1,3-dione]"
7,0.1 to 10,"Cc1cccc(C)c1Nc1nn(C)c2nc(Nc3ccc(N4CCN(C5CCN(c6ccc7c(c6)C(=O)N(C6CCC(=O)NC6=O)C7=O)CC5)CC4)nc3)ncc12 (stereo not shown) [Compound 156, 5-(4-(4-(5-((3-((2,6-dimethylphenyl)amino)-1-methyl-1H-pyrazolo[3,4-d]pyrimidin-6-yl)amino)pyridin-2-yl)piperazin-1-yl)piperidin-1-yl)-2-(2,6-dioxopiperidin-3-yl)isoindoline-1,3-dione]"
8,0.1 to 10,"Cc1cccc(C)c1Nc1nn(C)c2nc(Nc3ccc(N4CCN(CC5CN(c6ccc7c(c6)C(=O)N(C6CCC(=O)NC6=O)C7=O)C5)CC4)nc3)ncc12 (stereo not shown) [Compound 159, 5-(3-((4-(5-((3-((2,6-dimethylphenyl)amino)-1-methyl-1H-pyrazolo[3,4-d]pyrimidin-6-yl)amino)pyridin-2-yl)piperazin-1-yl)methyl)azetidin-1-yl)-2-(2,6-dioxopiperidin-3-yl)isoindoline-1,3-dione]"
9,0.1 to 10,"Cc1cccc(C)c1Nc1nn(C)c2nc(Nc3ccc(N4CCN(CC5CCN(c6ccc7c(c6)C(=O)N(C6CCC(=O)NC6=O)C7=O)CC5)CC4)cc3)ncc12 (stereo not shown) [Compound 163, 5-(4-((4-(4-((3-((2,6-Dimethylphenyl)amino)-1-methyl-1H-pyrazolo[3,4-d]pyrimidin-6-yl)amino)phenyl)piperazin-1-yl)methyl)piperidin-1-yl)-2-(2,6-dioxopiperidin-3-yl)isoindoline-1,3-dione]"
